Data published in patent publication US20260028390A1, “ALPHA1-ANTITRYPSIN FOR USE IN THE TREATMENT OF DISEASES OR DISORDERS OF THE NERVOUS SYSTEM SUCH AS CHRONIC INFLAMMATORY DEMYELINATING POLYNEUROPATHY” (Ageronix SA, priority 2022, published 2026).

System: HMC3-MHCII^Luc cells
Assay: RNAseq differential gene expression / GSEA in AAT-treated resting and IFNγ-activated microglia
Assay type: cell-based, human
Experimental: • A) Human microglial HMC3-MHCII^Luc cells were plated at day 0, presented IFNγ at day 1 until day 2 and measurement of the luciferase activity and cell viability were done at day 4. • B) AATs were applied from day 0 to day 4 on HMC3-MHCII^Luc cells. Activation was measured by the activity of MHCII-driven luciferase and represented as percentage of IFNγ control for all conditions. All conditions were performed in triplicates, error bars represent standard deviation. • C) Bulk RNA extraction was performed on the same HMC3-MHCII^Luc cultures. Quality control (QC) were applied to RNA before sequencing. QC of the sequencing was done prior to mapping on the human genome. Mapped reads were counted, and differential gene expression was measured between the conditions (see Table 1-10). (FIGS. 3A, 3B and 3C)
RNAseq data from plasma-derived and recombinant AATs were pooled, normalized and analyzed through Gene Set Enrichment Analysis (GSEA) (https://www.gsea-msigdb.org/gsea/index.jsp; Subramanian, A., et al. Proc. Natl. Acad. Sci. USA, 102 (43): 15545-15550, 2005.). […] Importantly, both the IFNγ and inflammatory responses were dampened by AAT. However, the downregulation of the inflammatory response genes in (C) was just under significance.
Tables of genes related to antigen presentation (Table 1), cytokine signaling (Table 2), interferon signaling (Table 3) and complement activation (Table 4). Inflammatory top gene (FC>2; p-value<0.05; left column), were defined by differential expression between untreated and IFNγ-treated cells (inflammation; middle column).
HMC3-MHCII^Luc and HMC3-MHCII^Luc; Ubi^AAT (endogenous AAT) cell lines were seeded into 96-well plates at a density of approximately 2500 cells/well. HMC3-MHCII^Luc cell line was plated and was added plasma-derived AAT and recombinant AATs (produced in CHO cells, AAT 1 and AAT 2) 3h later and at ranged concentration (1; 10 or 25 μM). 24h after, still in the presence of exogenous or endogenous AAT, microglial activation was induced with a 24h-long IFNγ presentation (10 ng/ml). IFNγ was then removed and both HMC3-MHCII^Luc and HMC3-MHCII^Luc; Ubi^AAT cells were cultured for 48h in exogenous or endogenous presence of AAT before cell cultures were beeing assessed for cell viability and activation (See FIGS. 3A, 3B, 3C and 4A,4B, 4C).
RNA samples from plasma-derived AAT and recombinant AAT Nr. 2 were checked for quality (2100 Bioanalyzer, Agilent) and libraries prepared with Truseq RNA Library Kit (Illumina, RS-122-2001). Libraries were sequenced (HiSeq 4000, Illumina) controlled for the quality of sequencing (FastQC), mapped on the human genome (STAR v.2.7.0f; UCSC hg38), reads were counted (HTSeq v0.9.1) and the differential expression analysis was performed with the R/Bioconductor package (edgeR 1.30.1.).

[1] = Inflammation + AAT, AD risk gene
[2] = Inflammation + AAT, MCT*/PN risk gene
[3] = Inflammation + AAT, MS risk gene
[4] = Inflammation + AAT, PD risk gene
[5] = Regulated in AAT (resting condition), antigen presentation
[6] = Regulated in AAT (resting condition), cytokine signalling
[7] = Regulated in AAT (resting condition), interferon signaling
[8] = head prints AAT (right block), GBS risk gene
[9] = inflammation + AAT, antigen presentation
[10] = inflammation + AAT, complement activation
[11] = inflammation + AAT, cytokine signalling
[12] = inflammation + AAT, interferon signaling

alpha1-antitrypsin (AAT) protein
IGFBP2 expression FC (FC inflammation + AAT, M2 gene): 1.34
IL1R1 expression FC (FC inflammation + AAT, M2 gene): 1.18
ITGA11 expression FC (FC inflammation + AAT, M2 gene): 1.54
KANK2 expression FC (FC inflammation + AAT, M2 gene): 1.25
KDM2B expression FC (FC inflammation + AAT, M2 gene): 1.17
KIAA1549L expression FC (FC inflammation + AAT, M2 gene): 1.44
LDHA expression FC (FC inflammation + AAT, M2 gene): 1.21
LOXL2 expression FC (FC inflammation + AAT, M2 gene): 1.25
MBOAT7 expression FC (FC inflammation + AAT, M2 gene): 1.37
METRN expression FC (FC inflammation + AAT, M2 gene): 1.64
MIF expression FC (FC inflammation + AAT, M2 gene): 1.72
MMP1 expression FC (FC inflammation + AAT, M2 gene): 2.39
MXRA8 expression FC (FC inflammation + AAT, M2 gene): 1.49
OLFML2B expression FC (FC inflammation + AAT, M2 gene): 1.44
PAPPA expression FC (FC inflammation + AAT, M2 gene): 1.31
PLEC expression FC (FC inflammation + AAT, M2 gene): 1.54
PLLP expression FC (FC inflammation + AAT, M2 gene): 1.46
PREX1 expression FC (FC inflammation + AAT, M2 gene): 1.28
PRSS23 expression FC (FC inflammation + AAT, M2 gene): 1.16
PTPRS expression FC (FC inflammation + AAT, M2 gene): 1.23
RASAL1 expression FC (FC inflammation + AAT, M2 gene): 1.45
SEMA3B expression FC (FC inflammation + AAT, M2 gene): 1.39
SERPINH1 expression FC (FC inflammation + AAT, M2 gene): 1.20
SH3PXD2B expression FC (FC inflammation + AAT, M2 gene): 1.19
SLC16A3 expression FC (FC inflammation + AAT, M2 gene): 1.65
STC2 expression FC (FC inflammation + AAT, M2 gene): 1.32
TBCD expression FC (FC inflammation + AAT, M2 gene): 1.26
TCEAL2 expression FC (FC inflammation + AAT, M2 gene): 1.30
TGFB1I1 expression FC (FC inflammation + AAT, M2 gene): 1.26
TGFBI expression FC (FC inflammation + AAT, M2 gene): 1.18
THBS1 expression FC (FC inflammation + AAT, M2 gene): 1.34
TNFRSF1B expression FC (FC inflammation + AAT, M2 gene): 1.23
ZIC2 expression FC (FC inflammation + AAT, M2 gene): 2.77
ZNF319 expression FC (FC inflammation + AAT, M2 gene): 1.25
ABCA7 expression FC [1]: 1.36
APOE expression FC [1]: 1.55
BIN1 expression FC [1]: 1.43
PICALM expression FC [1]: −1.29
PSEN2 expression FC [1]: 1.28
TREM2 expression FC [1]: 1.47
CCT5 expression FC [2]: −1.13
DNAJB2* expression FC [2]: 1.20
DST expression FC [2]: 1.30
GARS* expression FC [2]: −1.24
GDAP1* expression FC [2]: −1.24
HSPB1* expression FC [2]: 1.56
IGHMBP2* expression FC [2]: 1.21
INF2 expression FC [2]: 1.35
KARS* expression FC [2]: −1.13
LMNA* expression FC [2]: 1.39
MED25* expression FC [2]: 1.38
NDRG1* expression FC [2]: 1.30
SCN9A expression FC [2]: −1.66
SEPT9 expression FC [2]: 1.29
TFG* expression FC [2]: −1.19
TUBB3 expression FC [2]: 1.44
TRPV4* expression FC (Inflammation + AAT, MCT*/PN risk gene, first TRPV4* line): 1.72
TRPV4* expression FC (Inflammation + AAT, MCT*/PN risk gene, second TRPV4* line): 1.40
AGAP2 expression FC [3]: 1.45
CYP24A1 expression FC [3]: 1.34
DKKL1 expression FC [3]: 2.12
HLA-A expression FC [3]: 1.57
HLA-DRB1 expression FC [3]: 1.51
MPHOSPH9 expression FC [3]: −1.19
NFKBIZ expression FC [3]: −1.37
SLC30A7 expression FC [3]: −1.56
ZMIZ1 expression FC [3]: 1.47
ATP13A2 expression FC [4]: 1.49
DNAJC6 expression FC [4]: −1.12
GBA expression FC [4]: 1.15
LRP10 expression FC [4]: 1.23
PINK1 expression FC [4]: 1.20
PLA2G6 expression FC [4]: 1.37
SYNJ1 expression FC [4]: −1.23
UCHL1 expression FC [4]: −1.10
NFATC1 expression FC [5]: 1.44
TRAF6 expression FC [5]: −1.26
PLAU expression FC (Regulated in AAT (resting condition), complement activation): −1.27
BIRC2 expression FC [6]: −1.53
CEBPG expression FC [6]: −1.31
MYD88 expression FC [6]: −1.35
RASGRF2 expression FC [6]: −1.45
RIPK2 expression FC [6]: −1.30
SPTBN1 expression FC [6]: −1.21
STAT1 expression FC [6]: −1.47
TM7SF3 expression FC [6]: −1.18
TNFSF9 expression FC [6]: 1.26
TRAF6 expression FC [6]: −1.26
IRF2 expression FC [7]: −1.17
STAT1 expression FC [7]: −1.47
FOS expression FC AAT [8]: −1.54
GUK1 expression FC AAT [8]: 1.31
LY96 expression FC AAT [8]: −2.31
MARCKS expression FC AAT [8]: −1.84
NFIL3 expression FC AAT [8]: −1.22
ZNF12 expression FC AAT [8]: −1.23
genes related to the unfolded protein response (UPR) pathway and cell-survival (GSEA) (human microglial cells, AAT treatment): upregulation
CALR expression FC [9]: 1.35
CTSA expression FC [9]: 1.17
CTSD expression FC [9]: 1.47
HLA-DOB expression FC [9]: −4.49
HLA-DPB1 expression FC [9]: 1.31
HLA-DRA expression FC [9]: −2.22
IL1B expression FC [9]: −2.07
MRC2 expression FC [9]: 1.47
NFATC2 expression FC [9]: 1.63
PSMB9 expression FC [9]: −1.23
PYCARD expression FC [9]: 2.20
SOCS3 expression FC [9]: 1.20
TAPBP expression FC [9]: 1.23
C3AR1 expression FC [10]: −1.50
ITGAX expression FC [10]: 1.41
PLAUR expression FC [10]: 1.32
SERPINB2 expression FC [10]: −4.63
ANXA1 expression FC [11]: −1.33
ATF3 expression FC [11]: −1.26
CX3CL1 expression FC [11]: 1.61
CXCL1 expression FC [11]: −2.09
CXCL5 expression FC [11]: −2.15
DUSP6 expression FC [11]: −1.26
FGF2 expression FC [11]: −1.57
FSCN1 expression FC [11]: 1.48
HBEGF expression FC [11]: −1.30
IL1B expression FC [11]: −2.07
IL1R1 expression FC [11]: 1.18
IL18 expression FC [11]: −1.75
IL27RA expression FC [11]: 1.36
IL411 expression FC [11]: 1.95
JAK3 expression FC [11]: 1.43
MAP2K2 expression FC [11]: 1.51
MAP2K3 expression FC [11]: 1.37
MAPK11 expression FC [11]: 1.44
MAPK12 expression FC [11]: 1.33
MAPK13 expression FC [11]: 1.23
NFKBIZ expression FC [11]: −1.37
PSMB9 expression FC [11]: −1.23
RASAL1 expression FC [11]: 1.52
SOCS3 expression FC [11]: 1.20
STAT5A expression FC [11]: 1.45
TNFRSF9 expression FC [11]: −2.35
TRAF2 expression FC [11]: 1.42
CD44 expression FC [12]: 1.14
FLNB expression FC [12]: −1.20
HLA-DPB1 expression FC [12]: 1.31
HLA-DRA expression FC [12]: −2.22
IFIT1 expression FC [12]: −1.78
IFNAR1 expression FC [12]: −1.63
IRF3 expression FC [12]: 1.56
MX1 expression FC [12]: −2.00
MX2 expression FC [12]: −2.14
SOCS3 expression FC [12]: 1.20
USP18 expression FC [12]: −1.76
inflammatory top genes found affected by AAT treatment (top genes FC>2, p-value<0.05, significantly and oppositely regulated): ~35%
